Measured values published in article PMC4913735, “Non‐glycosidic compounds can stimulate both human and mouse iNKT cells” (European Journal of Immunology, 2016).

Assays:
hCD1d C1R cells = assay: Tetrameric human iNKT‐cell TCR staining of lipid‐loaded hCD1d C1R cells (flow cytometry); assay type: cell-based; settings: compared with α‐GalCer; overnight incubation
Method: Two analogs of ThrCer, ThrCer 6, and ThrCer 7 were synthesized. […] We first carried out measurements to assess the binding affinity of these ThrCer analogs to human iNKT‐cell TCR (Fig. 1B). Recombinant human CD1d (hCD1d) molecules were refolded in vitro with ThrCer 6 and ThrCer 7 separately and coupled to BIAcore chips, over which refolded human iNKT‐cell TCR was injected at different concentrations 34. […]
Figure 1 ThrCer 6 and ThrCer 7 are potent human iNKT‐cell agonists and display a prolonged interaction with the iNKT‐cell TCR when in complex with human CD1d molecules. […] (B) Equilibrium binding and kinetics measurements of a soluble human iNKT‐cell TCR were assessed for hCD1d molecules refolded with α‐GalCer, ThrCer, ThrCer 6, and ThrCer 7. K d values (μM) were calculated from equilibrium binding. […] After incubating overnight, the degree of iNKT‐cell recognition, assessed either (C) by using a tetrameric human iNKT‐cell TCR by flow cytometry or (D) by the addition of human iNKT cells to cultures and determining the amount of IFN‐γ released in supernatant by ELISA. (E) Human DC maturation was assessed following coculture with human iNKT cells and l μg lipids after 40 h, as determined by CD86 upregulation on DC by flow cytometry. […]

murine iNKT cells = assay: In vivo iNKT‐cell activation in mice: serum IFN‐γ/IL‐4 ELISA and splenic DC maturation; set-up: species or system C57BL/6 mice; settings: for DC maturation (CD40 on CD11c+ cells) in iNKT cell deficient mice: CD1d−/− mice
Method: Figure 2 Enhanced in vivo potency of ThrCer 6. (A) Equilibrium binding and kinetics measurements of a soluble mouse iNKT‐cell TCR were assessed for mCD1d molecules refolded with α‐GalCer, ThrCer 6 and ThrCer 7. K d values (μM) were calculated from equilibrium binding. (B–D) Mice were immunized with 1 μg lipids i.v. and (B) IL‐4 and (C) IFN‐γ were detected by ELISA in blood sera at either 2 or 18 h, respectively. (D) At 18 h, immunized mice were sacrificed and splenocytes stained with anti‐CD11c and anti‐CD86 antibodies to determine the extent of maturation by the expression of CD86 on gated DCs (CD11c^+) using flow cytometry. (E and F) Mice were immunized i.v. with titrating doses of α‐GalCer, ThrCer, ThrCer 6, and ThrCer 7 and (E) IFN‐γ and (F) IL‐4 were detected in blood sera at 2, 12, and 18 h by ELISA. Median fluorescent intensity = MFI. (B–F) Data are shown as mean ± SEM (n = 3/group) and are representative of two independent experiments (A), three experiments (B–D), or a single experiment (E and F). *p < 0.05; Student's t‐test.
Concentrations of murine IFN‐γ and IL‐4 in serum were determined using standard sandwich ELISAs using the R4‐6A2 capture Ab for IFN‐γ (eBioscience), and the ID11 capture Ab for IL‐4 (Endogen). Biotinylated XMG1.2 (eBioscience) was used as the detection Ab for IFN‐γ and biotinylated BVD6‐24G2 (eBioscience) was used as the detection Ab for IL‐4. Human IFN‐γ in supernatants was determined using the capture Ab NIB42 (BD Pharmingen) and biotinylated 4S.B3 (BD Pharmingen) as the detection Ab.
Lipid compounds were solubilized in 150 mM NaCl and 0.5% Tween 20 (vehicle). All substances were diluted in PBS and administered either i.v., or i.m. Unless stated otherwise, doses used per injection were 400 μg OVA (Sigma) and 100 ng of lipid compounds or vehicle.
Human iNKT‐cells were expanded as described previously 34. For lipid titration studies, hCD1d C1R cells were pulsed with lipids overnight and following washes, cocultured with human iNKT cells. The presence of IFN‐γ was detected in supernatants by ELISA 12. For DC maturation studies, immature DCs were collected on day 4 and pulsed with lipids and iNKT cells 34. DC maturation was determined by the upregulation of CD86 by flow cytometry on a FACSCalibur with CellQuest software (BD) and analyzed with FlowJo software (Tree Star). For in vivo murine APC phenotype analysis the expression of CD86 or CD40 on CD11c^+ APCs from spleen were determined after 18 h post i.v. of 1 μg lipids on a CyAn cytometer and analyzed with FlowJo software (Tree Star).

B16 melanoma cells = assay: B16 melanoma lung metastasis model; assay type: in vivo, C57BL/6 mice; settings: 1 and 0.1 ng i.v.; versus ThrCer; comparable protection at 1000‐fold lower dose than ThrCer
Method: To this end, mice were injected i.v. with a range of doses of lipids (100, 1, 0.1 ng) and 3 days later, challenged with i.v. injected 5 × 10^5 B16 melanoma cells. Fourteen days later, the metastasis load in the lungs was quantified. […] With a reduction in lipid dose, the extent of tumor metastasis burden increased to varying degrees.
(A) Mice were immunized with 100, 1, or 0.1 ng of lipids i.v. 3 days before receiving an i.v. challenge with 5 × 10^5 B16 melanoma cells (n = 4/group). Two weeks later the lungs were removed and the number of metastatic nodules quantified as described in section “Materials and methods”. Data in the three panels are shown as mean ± SEM of tumor area as percentage of total lung area, and are representative of two independent experiments. (B) Representative lung lobe from each group is shown. Photographic images are representative of four lung lobes in each of two independent experiments.
C57BL/6 mice were challenged i.v. with syngeneic B16F10 melanoma, resuspended in PBS. A total of 5 × 10^5 cells in 200 μL were administered 3 days after administration of indicated doses of iNKT‐cell agonists (100, 1, or 0.1 ng). Two weeks after challenge, mice were killed, lungs removed, imaged and the percentage of lung tumor metastases quantified using Adobe Photoshop®.

Row | SMILES | Staining of lipid‐loaded hCD1d C1R cells by tetrameric human iNKT‐cell TCR (hCD1d C1R cells) | Ability to activate murine iNKT cells and mature DC in vivo (murine iNKT cells; 1 μg i.v., serum IL‐4 2 h, IFN‐γ 18 h, CD86 on CD11c+ DC, greater than ThrCer, similar to α‐GalCer) | DC maturation (CD40 on CD11c+ cells) in iNKT cell deficient mice (murine iNKT cells; 1 μg i.v.) | Serum IFN‐γ secretion after intramuscular injection (murine iNKT cells; i.m., 18 h post injection, compared with α‐GalCer) | Serum IFN‐γ secretion, in vivo dose titration (murine iNKT cells; i.v., after 12 and 18 h, compared with α‐GalCer) | Protection against B16 lung metastases at reduced lipid dose (B16 melanoma cells)
1 | CCCCCCCCCCCCCCCCCCCCCCCCCC(=O)N[C@@H](CO[C@H]1CC[C@H](O)[C@H](O)[C@H]1O)[C@H](O)[C@H](O)CCCCCCCCCCCCCC [ThrCer 6] | enhanced staining | marked increase | do not mature DCs | higher | significantly enhanced | far greater protection
2 | CCCCCCCCCCCCCCCCCCCCCCCCCC(=O)NC(COC1CCCC(O)C(O)C1O)C(O)C(O)CCCCCCCCCCCCCC (stereo not drawn) [ThrCer 7] | enhanced staining |  | do not mature DCs |  |  | 
3 | CCCCCCCCCCCCCCCCCCCCCCCCCC(=O)N[C@@H](CO[C@H]1O[C@H](CO)[C@H](O)[C@H](O)[C@H]1O)[C@H](O)[C@H](O)CCCCCCCCCCCCCC [α‐GalCer, α‐galactosylceramide, reference compound] |  |  |  |  |  | far greater protection
